According to patent US20050014700A1, “Cbi analogues of cc-1065 and the duocarmycins” (priority 2001, published 2005):
Read-outs that look alike come from different tables or passages of the source.

How the values were obtained:
L1210 [1] = test: cellular functional assay for L1210 cytotoxic activity; format: cell-based
Protocol: For comparison, the L1210 IC50 for (+)-N-Boc-CBI, which lacks an attached DNA binding domain, is 80 nM (80,000 pM).

[2] = test system: w794 duplex DNA (SV40 nucleosomal DNA insert in M13mp10); test: DNA alkylation efficiency and selectivity, thermally-induced strand cleavage of 5′ end-labeled duplex DNA (PAGE); format: biochemical; settings: for concentration at which DNA alkylation is detectable: 25° C., 24 hours
Description: The DNA alkylation properties of the compounds including those of CBI-X9-Y9 (24), CBI-X11-Y9 (25) and CBI-X10-Y10 (26) (FIG. 7) were examined within a 150 base-pair segment of duplex DNA and compared with (+)-duocarmycin SA (2), (+)-CBI-CDPI2 (27) and (+)-CBI-indole2 (28). One clone of phage M13mp10 was selected for the study that contained the SV40 nucleosomal DNA insert w794 (nucleotide no. 5238-138) (Ambrose, C., et al., J. Mol. Biol. 1989, 210, 255). The alkylation site identification and the assessment of the relative selectivity among the available sites was obtained by thermally-induced strand cleavage of the singly 5′ end-labeled duplex DNA after exposure to the agents. After treatment of the end-labeled duplex DNA with a range of agent concentrations, the unbound agent was removed by EtOH precipitation of the DNA. Redissolution of the DNA in aqueous buffer, thermolysis (100° C., 30 min) to induce strand cleavage at the sites of DNA alkylation, denaturing high resolution polyacrylamide gel electrophoresis (PAGE) adjacent to Sanger dideoxynucleotide sequencing standards, and autoradiography led to identification of the DNA cleavage and alkylation sites (Boger, D. L., et al., Tetrahedron 1991, 47, 2661).
The preparation of singly ^32P 5′ end-labeled double-stranded DNA, the agent binding studies, gel electrophoresis, and autoradiography were conducted according to procedures described in full detail elsewhere.^28 Eppendorf tubes containing the 5′ end-labeled DNA (9 μL) in TE buffer (10 mM Tris, 1 mM EDTA, pH 7.5) were treated with the agent in DMSO (1 μL at the specified concentration). The solution was mixed by vortexing and brief centrifugation and subsequently incubated at 25° C. for 24 hours. The covalently modified DNA was separated from the unbound agent by EtOH precipitation and resuspended in TE buffer (10 μL). The solution of DNA in an Eppendorf tube sealed with Parafilm was warmed at 100° C. for 30 min to introduce cleavage at the alkylation sites, allowed to cool to 25° C., and centrifuged. Formamide dye (0.03% xylene cyanol FF, 0.03% bromophenol blue, 8.7% Na2EDTA 250 mM) was added (5 μL) to the supernatant. Prior to electrophoresis, the sample was denatured by warming at 100° C. for 5 min, placed in an ice bath, and centrifuged, and the supernatant (3 μL) was loaded directly onto the gel. Sanger dideoxynucleotide sequencing reactions were run as standards adjacent to the reaction samples. Polyacrylamide gel electrophoresis (PAGE) was run on an 8% sequencing gel under denaturing conditions (8 M urea) in TBE buffer (100 mM Tris, 100 mM boric acid, 0.2 mM Na2EDTA) followed by autoradiography.

L1210 [3] = settings: previous study; additional heteroatom in carboxylate bearing aromatic ring; cited from earlier work
[4] = test system: w794 duplex DNA (SV40 nucleosomal DNA insert in M13mp10); settings: cited from earlier work; for DNA alkylation efficiency compared to parent (+)-CBI-CDPI (21) / DNA alkylation selectivity compared to parent (+)-CBI-CDPI (21): previous study

With `CC(C)(C)OC(=O)N1CCc2c1ccc1[nH]c(C(=O)N3CCc4c3ccc3[nH]c(C(=O)N5CC(CCl)c6c5cc(O)c5ccccc65)cc43)cc21` (centres unmarked) [X11-Y11] as the molecule, how does the IC50 (L1210 [1]) read?
Its IC50 is 5 pM.

Which IC50 (L1210 [1]) does the source give for `CC(C)(C)OC(=O)Nc1ccc2[nH]c(C(=O)N3CCc4c3ccc3[nH]c(C(=O)N5CC(CCl)c6c5cc(O)c5ccccc65)cc43)cc2c1` (centres unmarked) [X11-Y14, 1-(Chloromethyl)-5-hydroxy-3-{[3-[5-(tert-Butoxycarbonylaminoindole-2-yl)carbonyl]-1,2-dihydro(3H-pyrrolo[3,2-e]indol)-7-yl)carbonyl}-1,2-dihydrobenzo [e]indole] here?
The IC50 was 7 pM.

For “1-(Chloromethyl)-5-hydroxy-3-{[4-[4-(tert-Butoxycarbonylamino)-1-methylpyrrol-2-yl)carbonyl]amino-1-methylpyrrol-2-yl]carbonyl}-1,2-dihydrobenzo[e]indole [X10-Y10]”, which IC50 (L1210 [1]) is on record?
Its IC50 is 440 pM.

What about the “DNA alkylation effectiveness relative to N-Boc-CBI” value ([2]; comparable reaction conditions) of the same molecule?
The value was 10-100 fold.

And the “lower DNA alkylation efficiency compared to 25” value ([2]; w794 DNA)?
Its value is 100-1000 fold.

What about the “concentration at which DNA alkylation is detectable” value ([2]; w794 DNA) of the same molecule?
The value was 10^−3 M.

Which IC50 (L1210 [1]) does the source give for “1-(Chloromethyl)-5-hydroxy-3-{[3-[4-(tert-Butoxycarbonylamino)-1-methylpyrrol-2-yl)-carbonyl]-1,2-dihydro(3H-pyrrolo[3,2-e]indol)-7-yl)carbonyl}-1,2-dihydrobenzo[e]indole [X11-Y10]” here?
The IC50 was 5 pM.

With `NC(=O)N1CCc2c1ccc1[nH]c(C(=O)N3CCc4c3ccc3[nH]c(C(=O)N5C[C@H]6C[C@@]67C5=CC(=O)c5ccccc57)cc43)cc21` [compound 27, (+)-CBI-CDPI2] as the molecule, how does the “alkylation of the minor 5′-ACTAA-3′ site” value ([2]; w794 DNA) read?
The value was “neither 27 or 28 alkylate the minor 5′-ACTAA-3′ site to a significant extent”.

With (+)-CBI-CDPBI as the molecule, how does the “decrease in cytotoxic activity relative to (+)-CBI-CDPI (21)” value (L1210 [3]) read?
The value was 40 fold.

And the “DNA alkylation efficiency compared to parent (+)-CBI-CDPI (21)” value [4]?
The value was “analogous decrease in the DNA alkylation efficiency”.

And the “DNA alkylation selectivity compared to parent (+)-CBI-CDPI (21)” value [4]?
Its value is “no alteration in the alkylation selectivity”.

With (+)-CBI-indole2 [compound 28] as the molecule, how does the “alkylation of the minor 5′-ACTAA-3′ site” value ([2]; w794 DNA) read?
Its value is “neither 27 or 28 alkylate the minor 5′-ACTAA-3′ site to a significant extent”.

Which “decrease in cytotoxic activity relative to (+)-CBI-CDPI (21)” value (L1210 [3]) does the source give for (+)-CBI-CDPBO here?
Its value is 40 fold.

What about the “DNA alkylation efficiency compared to parent (+)-CBI-CDPI (21)” value [4] of the same molecule?
Its value is “analogous decrease in the DNA alkylation efficiency”.

What about the “DNA alkylation selectivity compared to parent (+)-CBI-CDPI (21)” value [4] of the same molecule?
The value was “no alteration in the alkylation selectivity”.

With “1-(Chloromethyl)-5-hydroxy-3-{[4-[4-(tert-Butoxycarbonylaminothiophen-2-yl)carbonyl]aminothiophen-2-yl]carbonyl}-1,2-dihydrobenzo[e]indole [X8-Y8]” as the molecule, how does the IC50 (L1210 [1]) read?
Its IC50 is 290 pM.

Which “alkylation of the minor 5′-ACTAA-3′ site” value ([4]; w794 DNA, prior study) does the source give for (+)-CBI-CDPI [compound 21] here?
Its value is “does”.

With `CC(C)(C)OC(=O)N1CC2CC23C1=CC(=O)c1ccccc13` (single isomer, unassigned; (+)) [(+)-N-Boc-CBI] as the molecule, how does the IC50 (L1210 [1]) read?
The IC50 was 80000 pM.

For `Cn1cc(NC(=O)OC(C)(C)C)nc1C(=O)Nc1cn(C)c(C(=O)N2CC(CCl)c3c2cc(O)c2ccccc32)n1` (centres unmarked) [compound 24], which “concentration at which DNA alkylation is detectable” value ([2]; w794 DNA) is on record?
Its value is > 10^−3 M.

For “1-(Chloromethyl)-5-hydroxy-3-{[3-[2-(tert-Butoxycarbonylamino-1,3-thiazol-4-yl) carbonyl]-1,2-dihydro(3H-pyrrolo[3,2-e]indol)-7-yl)carbonyl}-1,2-dihydrobenzo[e]indole [X11-Y7]”, which IC50 (L1210 [1]) is on record?
The IC50 was 5 pM.
